Laboratory results taken from patent US20160280651A1, “COMPOUNDS THAT INDUCE ABA RESPONSES” (THE REGENTS OF THE UNIVERSITY OF CALIFORNIA, priority 2013, published 2016).

Columns and labels:
Physcomitrella patens = assay: Protonema growth of moss; format: in vivo; details: 200 μM for 10 days
Procedure: (§1) FIG. 17A-FIG. 17D. The effect of ABA and its agonists in Physcomitrella patens and Chlamydomonas. Protonemal growth images (A) and quantitative analysis (B) of the effects of ABA and agonists on Phsycomitrella patens. Protonema were grown on 200 μM of specific test chemical for 10 days. […] Pyrabactin bleached protonema. (C) The expression of ABA-responsive genes of Physcomitrella patens. Protonema were treated with 200 μM chemical solutions for 3 h. (D) Colony growth of Chlamydomonas on the chemical with salinity stress and osmotic stress. There was no effect of ABA and LC66C6 on the Chlamydomonas growth with and without stresses.

Chlamydomonas = assay: Colony growth of Chlamydomonas with and without salinity and osmotic stress; format: in vivo
Procedure: as §1

ABA-responsive genes [1] = assay: Quantitative RT-PCR of ABA-responsive genes in Arabidopsis; format: in vivo; details: for Induction of MAPKKK18, RD29A and RD29B mRNAs: Col and Ler ecotypes and pyr1, pyl1, pyl2, pyl3, pyl4 single mutants; for Expression of ABF3, GBF3, NCED3 and RD29A: Col wild-type plants; for Expression of RD29B and MAPKKK18 mRNA: wild-type plants
Procedure: (§2) FIG. 9A-FIG. 9D. LC66C6 induces numerous ABA-responsive genes. […] Ten-day old seedlings were treated with carrier solvent (DMSO) or either 25 μM ABA, pyrabactin or LC66C6 for 8 hours. Total RNA was then prepared labeled and hybridized to ATH1 microarrays. Data plotted are log 2 transformed average expression values for ˜13K probes that were detectable across all experiments. Data shown are averages determined from triplicate biological replicates. (C) and (D) show the expression of a reporter gene in different plant tissues after treatment with vehicle (DMSO), pyrabactin, LC66C6, or (+)-ABA.
FIG. 10. ABA-responsive gene expression in PYR/PYL single mutants. The response of the ABA-responsive MAPKKK18, RD29A, and RD29B mRNAs to LC66C6, ABA and pyrabactin were characterized in the Col and Ler ecotypes and the pyr1, pyl1, ply2, pyl3 and pyl4 single mutant genotypes.
FIG. 11. LC66C6 induces ABA-responsive gene expression in wild-type plants, abi1-1 and PYR/PYL quadruple mutants.
Total RNA was isolated using Plant RNA purification reagent (Invitrogen, USA) according to the manufacturer's instructions. cDNA was synthesized from 1 μg of total RNA using the QantiTec reverse transcription kit (Qiagen, USA). Real-time PCR using Maxima® SYBR Green/Fluorescein qPCR Master Mix (Fermentas) was performed with the iQ5 real-time PCR detection system (Bio-Rad, Hercules, Calif.). The relative amounts of target mRNAs were determined using the relative standard curve method and were normalized by relative amount of internal control mRNA. Biological triplicate experiments were performed.

ABA-responsive genes [2] = assay: ATH1 microarray analysis; format: in vivo, Arabidopsis; details: wild-type seedlings; 25 μM
Procedure: as §2
Total RNA was isolated using RNAeasy Plant Mini Kit (Qiagen, USA) according to the manufacturer's instructions. cDNA synthesis, labeling and hybridization to the Arabidopsis ATH1 chips (Affymetrix, USA) were performed by the IIGB Core Instrumentation Facility of University of California at Riverside using Affymetrix protocols. Biological triplicate samples were hybridized for DMSO controls, ABA, pyrabactin and quinabactin treatments; compound were applied at 25 μM final concentration and RNA prepared from frozen tissue after 6 hours exposure to compounds or controls. Expression signals for probe sets were calculated and normalized by MASS Statistical Algorithm (Affymetrix, USA). Experimental filtering of array data was performed for the presence of signal in all experiments. […]

Compound | Growth of protonema (Physcomitrella patens) | Growth of Chlamydomonas (Chlamydomonas) | Induction of MAPKKK18, RD29A and RD29B mRNAs (ABA-responsive genes [1]) | Expression of ABF3, GBF3, NCED3 and RD29A (ABA-responsive genes [1]) | Expression of RD29B and MAPKKK18 mRNA (ABA-responsive genes [1]) | Genome-wide expression pattern compared with ABA (ABA-responsive genes [2])
CCCN1C(=O)CCc2cc(NS(=O)(=O)Cc3ccc(C)cc3)ccc21 [LC66C6] | weak but significant inhibition | no effect | induced | induced expression of ABF3, GBF3, NCED3, and RD29A in a dose dependent manner | induced the expression of RD29B and MAPKKK18 mRNA in a dose dependent manner in wild-type plants | induces a similar set of genes to those induced by ABA
O=S(=O)(NCc1ccccn1)c1ccc(Br)c2ccccc12 [pyrabactin, reference compound] | bleached the protonema | bleached the Chlamydomonas | did not significantly induce expression | did not induce significant expression | did not induce gene expression in wild-type plants | did not induce an expression pattern similar to that of ABA
